Data set [1] in a line: Stability assay of crystalline form (influential factors). The class given is physicochemical. The procedure:
1.1. Preparation of Samples
500 mg of the crystalline form A of the compound of formula I prepared in Example 2 was placed in a dry and clean container, and evenly spread in a thin layer as the test sample. The sample was completely exposed to experimental conditions of influential factors (40° C., 60° C., 75% RH, 92.5% RH, high temperature and high humidity (40° C., 75% RH)). Samples were taken for analysis on day 10. The samples were completely exposed to illumination (visible light of 1,200,000 Lux·hr, UV of 216 W·hr/m^2) at room temperature.
1.2. Chromatographic Conditions
Chromatographic column: Waters XBridge Shield RP18 (4.6 mm×150 mm, 3.5 μm).
The water content was measured by a Mettler V20 system.
1.3. Preparation of Sample Solution
About 12.5 mg of the sample was dissolved with an appropriate amount of a mixed diluent of acetonitrile-water (70:30) for content assay of related substance.

For data set [2], the system named is HBV DNA in HepAD38 cells. Kind of data set: In-vitro inhibitory activity against HBV DNA in HepAD38 cells. Format: cell-based. Particulars: Hepatitis B virus, 144 h, 6 days treatment, intracellular capsid HBV DNA by qPCR, read-out: EC50, anti-HBV activity. The procedure:
(§1) 2.1. In-vitro Inhibitory Activity Against HBV DNA in Cells
(§2) A vial of HepG2.2.15 cells (Wuhan Institute of Virology) or HepAD38 cells in good condition and at logarithmic growth phase was washed once with 5 mL of PBS. 3 mL of pancreatin was added. The cells were digested at room temperature for 5 min, then 2 mL of pancreatin was discarded. The cells were further digested in a cell incubator for 10 min, and observed under a microscope (whether the cells are round in shape, and whether the cells are separated or adhered). 10 mL of complete medium was added to terminate the digestion. The cells was mixed using a pipette to obtain a single cell suspension. 10 μL of the cell suspension was loaded on a cell counter for counting, and diluted with the complete medium to adjust the cell density to 1×10^5 cells/mL. The cells were seeded on a 24-well plate (pre-coated with 50 μg/mL Collagen I solution) at 1 mL/well using a multi-channel pipette and cultured in a thermostatic CO2 incubator for 48 h.
(§3) A solution of the compound dissolved in DMSO was diluted to 10 concentrations in a 2-fold gradient using complete medium. […] HBV DNA in the intracellular viral capsid was measured by real-time fluorescent quantitative PCR. The inhibition rate was calculated according to the Ct value, and the EC50 value was calculated by four-parameter fitting.
In general terms: Quantitative PCR measures a nucleic acid by following its amplification.

In data set [3] the test system is HBV DNA in HepG2.2.15 cells. The data set is described as follows: In-vitro inhibitory activity against HBV DNA in HepG2.2.15 cells. Particulars: Hepatitis B virus, 144 h, 6 days treatment, intracellular capsid HBV DNA by qPCR, read-out: EC50, anti-HBV activity. Format: cell-based. The procedure: as §1, §2, §3
In data set [4] the test system is HepG2.2.15 cells. Kind of data set: In vitro cytotoxicity (CCK-8). To be noted: 6 days treatment. Format: cell-based. The procedure:
2.2. In Vitro Cytotoxicity
A vial of HepG2.2.15 cells (Wuhan Institute of Virology) in good condition and at logarithmic growth phase was washed once with 5 mL of PBS. 2 mL of pancreatin was added. The cells were incubated in a cell incubator for digestion, and observed at times under a microscope. 1 mL of pancreatin was discarded when the cells just fell off, leaving the residual liquid only. The cells were further incubated in the incubator at 37° C. for 8-15 min of digestion and observed under a microscope (whether the cells are round in shape, and whether the cells are separated or adhered). 5 mL of MEM medium was added for cell resuspension. The cell suspension was loaded on a cell counter for counting, and diluted with the complete medium to adjust the cell density to 2×10^5 cells/mL. The cells were seeded on a 96-well plate (pre-coated with 50 μg/mL Collagen I solution) at 100 μL/well using a multi-channel pipette and cultured in a thermostatic CO2 incubator for 24 h. The compound was added, and the medium containing the compound was refreshed every 3 days. A medium containing 0.5% of DMSO but no compound was added to the control wells, and control wells of basal medium were set. After 6 days of treatment, CCK-8 was added at 10 μL/well, and after 1-2 h, the absorbance at 450 nm was measured with a plate reader. The inhibition rate and CC50 were calculated.

Data set [5] in a line: Plasma protein binding assay, human plasma. The class given is in vitro ADME. The procedure: (§4) 2.4. Plasma Protein Binding Assay
(§5) Preparation of plasma samples: 5 μL of test compound solution or positive control was added to 495 μL of blank plasma of various species (mouse, rat, dog, monkey and human) to obtain plasma sample solutions at plasma concentrations of 1 μM and 10 μM (in acetonitrile).
(§6) The pretreated dialysis membrane was loaded on a high-throughput equilibrium dialysis system. 100 μL of the plasma sample solution and PBS buffer were added to the two sides (sample side and buffer side) of the dialysis membrane respectively (n=3). The system was sealed with a patch and incubated at 37° C. overnight (100 rpm) to achieve dialysis equilibrium. 50 μL samples were taken from the sample side and the buffer side, and the reaction was terminated with glacial acetonitrile containing an internal standard.
(§7) Sample pretreatment: 450 μL of glacial acetonitrile containing an internal standard was added to 50 μL of the sample from the plasma side for precipitation. The mixture was vortexed for 5 min, and centrifuged (12000 rpm, 4° C.) for 10 min. 75 μL of supernatant was taken and diluted with 75 μL of ultrapure water. After being mixed well, 1 μL of the resulting sample was injected for analysis; 250 μL of glacial acetonitrile containing an internal standard was added to 50 μL of the sample from the PBS side for precipitation. […]

Data set [6] is described as follows: Plasma protein binding assay, rat plasma. The class given is in vitro ADME. The procedure: as §4, §5, §6, §7
A short description of data set [7]: Plasma protein binding assay, mouse plasma. Format: in vitro ADME. As to the method:
as §4, §5, §6, §7

Data set [8] is described as follows: Plasma protein binding assay, dog plasma. The class given is in vitro ADME. As to the method: as §4, §5, §6, §7
Data set [9] in a line: Plasma protein binding assay, monkey plasma. The class given is in vitro ADME. The procedure:
as §4, §5, §6, §7

Data set [10] is described as follows: In vitro stability in human liver microsomes. The class given is in vitro ADME. As to the method:
(§8) Experimental Example 3. In Vitro Stability in Liver Microsome A final incubation system of 300 μL contained 30 μL of liver microsomes (protein concentration: 0.15 mg/mL, Corning), 30 μL of NADPH+MgCl2, 3 μL of substrate (in acetonitrile) and 237 μL of PBS. Samples were prepared in duplicate of 0.3 mL for each specie. For each tube, the 270 μL mixed solution of substrates and enzyme and the NADPH solution were separately pre-incubated at 37° C. for 5 min. The 30 μL mixed solution of NADPH+MgCl2 was added for reaction. 50-μL samples were taken at 0 min, 10 min, 30 min and 60 min, and 300 μL of glacial acetonitrile containing an internal standard was added to the samples to terminate the reaction. Sample pretreatment: 300 μL of glacial acetonitrile containing internal standard diazepam was added to 50 μL of the incubated sample for precipitation. The mixture was vortexed for 5 min, and centrifuged (12000 rpm, 4° C.) for 10 min. 75 μL of supernatant was added to a 96-well plate and diluted with 75 μL of ultrapure water. After being mixed well, 0.5 μL of the resulting sample was injected to a LC-MS/MS system for analysis.
In general terms: Microsomes from liver hold many membrane-bound enzymes, among them those of drug oxidation.

A short description of data set [11]: In vitro stability in rat liver microsomes. The class given is in vitro ADME. As to the method: as §8
Data set [12] in a line: In vitro stability in mouse liver microsomes. Format: in vitro ADME. As to the method: as §8
Data set [13] is described as follows: Pharmacokinetic (PK) study in rats. Format: in vivo. To be noted: SD rats, PO 10 mg/kg vs IV 5 mg/kg. As to the method: Pharmacokinetic (PK) Study in Rats […]
The animals to be tested (SD rats) were fasted for 12 h before administration and fed 4 h after administration, and had free access to water before, after and during the experiment.
After administration, about 0.2 mL of blood was collected from the orbit at 0 min, 15 min, 30 min, 1 h, 2 h, 4 h, 6 h, 8 h, 10 h, 24 h, 30 h and 48 h. After anticoagulation with EDTA-K2, the blood samples were transferred to a centrifuge at 4° C. within 30 min and centrifuged at 4000 rpm for 10 min to separate the plasma. All the plasma samples were collected and immediately stored at −20° C. for testing.
50 μL of the plasma sample to be tested and standard curve sample were taken, and 500 μL of acetonitrile solution containing an internal standard (20 mg/mL diazepam) was added. The reaction system was shaken for 5 min and centrifuged at 12,000 rpm for 10 min. 75 μL of supernatant was taken and diluted with 75 μL of ultrapure water. After being mixed well, 1 μL of the resulting sample was taken for LC/MS/MS analysis.

Setting [14] is: High humidity (75% RH), 10 days.
The mark [15] stands for this setting: High humidity (92.5% RH), 10 days.
Setting [16] is: High temperature (40° C.), 10 days.
Setting [17] is: High temperature (60° C.), 10 days.
Setting [18] is: High temperature and high humidity (40° C., 75% RH), 10 days.

Each structure is given as a SMILES string. pEC50: −log10 of the molar value.

In the case of `Cc1[nH]c(C(=O)C(=O)N[C@@H](C)C(F)(F)F)c(C)c1C(=O)Nc1ccc(F)c(C#N)c1` [(S)-N-(3-cyano-4-fluorophenyl)-2,4-dimethyl-5-(2-oxo-2-((1,1,1-trifluoropropan-2-yl)amino)acetyl)-1H-pyrrol-3-formamide], the “Related substance (total impurities)” value in data set [1] (Day 0) amounted to 0.57%; in data set [1] (setting [14]) it was 0.63%; in data set [1] (setting [15]), 0.65%; in [1] (setting [16]), 0.65%; in [1] (setting [17]), 0.65%; in data set [1] (setting [18]), 0.63%. Also, in data set [1] (Illumination, 10 days), the “Related substance (total impurities)” value is 0.64%. Besides, the Water stood at 0.13% in data set [1] (Day 0); 0.15% in data set [1] (setting [14]); 0.17% in data set [1] (setting [15]); 0.17% in data set [1] (setting [16]); 0.16% in data set [1] (setting [17]); 0.16% in data set [1] (setting [18]). The compound also registered a Water in [1] (Illumination, 10 days) of 0.16%. The “Stability at high humidity, at high temperature or under illumination” value in [1] (summary of Table 2) is on record as “good stability”.

Take `Cc1[nH]c(C(=O)C(=O)N[C@@H](C)C(F)(F)F)c(C)c1C(=O)Nc1ccc(F)c(C#N)c1` [Compound of formula I, (S)-N-(3-cyano-4-fluorophenyl)-2,4-dimethyl-5-(2-oxo-2-((1,1,1-trifluoropropan-2-yl)amino)acetyl)-1H-pyrrol-3-formamide]: the pEC50 (usually the EC50 on a negative log10 scale, so that one unit is a factor of ten) in data set [2] was 7.62; in data set [3], 7.76. Besides, the half-maximal cytotoxic concentration (CC50) (in general, the concentration at which the toxic effect on the cells reaches its halfway point) in [4] is more than 100000 nM. For the same compound, the Binding rate in data set [5] (1 μM) was determined as 97.3%; in data set [5] (10 μM) it was 97.3%; in data set [6] (1 μM), 95.0%; in data set [6] (10 μM) it was 95.3%; in [7] (1 μM), 85.4%; in data set [7] (10 μM) it was 85.5%. Further, the Binding rate in data set [8] (1 μM) was 94.0%; in data set [8] (10 μM), 93.9%; in data set [9] (1 μM) it was 90.2%; in [9] (10 μM) it was 90.5%. Besides, the “Human liver microsomes Residual content after 60 min” value in [10] was 99%. The “Rat liver microsomes Residual content after 60 min” value in data set [11] amounted to 99%. Further, in [12], the “Mouse liver microsomes Residual content after 60 min” value was found to be 96%. The F in data set [13] came to 100%.
